Measurements as given in paper PMC6830213, “High-throughput structures of protein–ligand complexes at room temperature using serial femtosecond crystallography” (IUCrJ, 2019).

Key:
[1] = molecular target: T1, dehaloperoxidase B (DHP-B; DHP) (Amphitrite ornata, UniProt Q9NAV7); assay: SFX crystal structure, room temperature, […] A; format: binding; conditions: 3-5 min, distal heme pocket, not bound to iron
T1 construct: homodimer in the asymmetric unit

[2] = molecular target: Dye-type peroxidase Aa from Streptomyces lividans (Streptomyces lividans); assay: crystal structure; serial femtosecond crystallography at room temperature, microcrystals on silicon fixed-target chips, SACLA beamline BL2 EH3; two monomers (homodimer) in the crystallographic asymmetric unit
[3] = molecular target: the molecule itself; assay: as above

Oc1ccc(Cl)cc1Cl [2,4-dichlorophenol]
SFX crystal structure, room temperature, 1.85 A ([1]; crystals pH 6.0, soaked 5 mM, near-full occupancy in monomer B): DCP exhibited a binding site that was virtually identical to those previously observed

Brc1ccc2[nH]ccc2c1 [5-bromoindole]
SFX crystal structure, room temperature, 1.85 A ([1]; crystals pH 6.0, soaked 50 mM, lower occupancy in second monomer): the 5BR complex was consistent with a computationally hypothesized binding site

Dye-type peroxidase Aa from Streptomyces lividans (enzyme)
stoichiometry N [2]: 2

B1: Dehaloperoxidase B from Amphitrite ornata (enzyme)
chain: GFKQDIATLRGDLRTYAQDIFLAFLNKYPDEKRNFKNYVGKSDQELKSMAKFGDHTEKVFNLMMEVADRATDCVPLASDASTLVQMKQHSGLTTGNFEKLFVALVEYMRASGQSFDSQSWDRFGKNLVSALSSAGMK
notes: Dehaloperoxidase B (DHP-B), heme peroxidase from the marine annelid Amphitrite ornata; Heme protein; Crystallised with the small ligands DCP or 5BR soaked in; also called DHP-B; DHP; source: expressed and purified as described previously (McCombs, Moreno-Chicano et al., 2017)
stoichiometry N [3]: 2
